From the supplement of paper PMC12137928
Structures can show the parent of a compound that is named as a salt.

Tests used:
[1] = system: HCT116; settings: 72 h
Procedure, shortened: (§1)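 HCT116 cells were seeded at 250 per well in 1536-well plates with 5 h allowed for attachment. CellTiter-Glo luminescence was normalized against vehicle (0%) and positive control (-100%) before pattern correction. The IC50 and maximal efficacy figures derive from four-parameter Hill fits.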

[2] = system: HCT116; assay: efficacy (maximum % inhibition of viability vs DMSO); higher = more cytotoxic; settings: 72 h
Procedure, shortened: as §1

Structure (SMILES) | IC50 cell viability ([1]; ICRF193 0 nM) | IC50 cell viability ([1]; ICRF193 200 nM) | efficacy ([2]; ICRF193 200 nM) | efficacy ([2]; ICRF193 0 nM)
CN(C)CCCN1c2ccccc2CCc2ccccc21 [Imipramine] | > 45.8 µM | 13 µM | 40.6% | –
CCc1cc2c(cc1CC)CC(NC[C@H](O)c1ccc(O)c3[nH]c(=O)ccc13)C2 [Indacaterol (maleate)] | 18.3 µM | 20.6 µM | 91.6% | 82.9%
C/C=C(/C)C(=O)O[C@H]1C(C)=C[C@]23C(=O)[C@@H](C=C(CO)[C@@H](O)[C@]12O)[C@H]1[C@@H](C[C@H]3C)C1(C)C [Ingenol mebutate] | > 45.8 µM | 23.1 µM | 60.3% | –
Oc1c(I)cc(I)c2cccnc12 [Iodoquinol] | 13 µM | 10.3 µM | 91.7% | 84.8%
CCc1c2c(nc3ccc(OC(=O)N4CCC(N5CCCCC5)CC4)cc13)-c1cc3c(c(=O)n1C2)COC(=O)[C@]3(O)CC [Irinotecan] | 13 µM | 23.1 µM | 102% | 79.8%
C[C@@H](c1nc(-c2ccc(C#N)cc2)cs1)[C@](O)(Cn1cncn1)c1cc(F)ccc1F [Isavuconazole] | > 45.8 µM | 8.2 µM | 45.8% | –
Clc1ccc(C(Cn2ccnc2)OCc2c(Cl)cccc2Cl)c(Cl)c1 (stereo not given) [Isoconazole nitrate] | 25.9 µM | 18.3 µM | 82.6% | 87.5%
CCN(CC)c1ccc(C(=C2C=CC(=[N+](CC)CC)C=C2)c2cc(S(=O)(=O)O)ccc2S(=O)(=O)[O-])cc1 [Isosulfan blue] | 29.1 µM | 18.3 µM | 78.9% | 76.5%
Cc1nnc2n1-c1sc(CCc3ccc(CC(C)C)cc3)cc1C(c1ccccc1Cl)=NC2C (stereo not given) [Israpafant] | 16.4 µM | 23.1 µM | 114% | 98.7%
CC(C)(C)c1cc(C(C)(C)C)c(NC(=O)c2c[nH]c3ccccc3c2=O)cc1O [Ivacaftor] | 18.3 µM | 18.3 µM | 98.6% | 96.4%
C/C(=C\c1csc(C)n1)[C@@H]1C[C@@H]2O[C@]2(C)CCC[C@H](C)[C@H](O)[C@@H](C)C(=O)C(C)(C)[C@@H](O)CC(=O)N1 [Ixabepilone] | 0.92 µM | > 45.8 µM | – | 72.5%
CC(C)C[C@H](NC(=O)CNC(=O)c1cc(Cl)ccc1Cl)B(O)O [Ixazomib] | 0.0651 µM | 0.058 µM | 92.6% | 92.8%
CC(=O)N1CCN(c2ccc(OCC3COC(Cn4ccnc4)(c4ccc(Cl)cc4Cl)O3)cc2)CC1 (stereo not given) [Ketoconazole] | > 45.8 µM | 13 µM | 55.8% | –
CCOC(=O)[C@@H](N)Cc1ccc(-c2cc(O[C@H](c3ccc(Cl)cc3-n3ccc(C)n3)C(F)(F)F)nc(N)n2)cc1 [LX1606 (Hippurate)] | 11.6 µM | 16.4 µM | 102% | 64.7%
CCOC(=O)C1=C(C)NC(C)=C(C(=O)OCC)C1c1ccccc1/C=C/C(=O)OC(C)(C)C [Lacidipine] | 18.3 µM | 20.6 µM | 108% | 94%
CS(=O)(=O)CCNCc1ccc(-c2ccc3ncnc(Nc4ccc(OCc5cccc(F)c5)c(Cl)c4)c3c2)o1 [Lapatinib] | 16.4 µM | 20.6 µM | 110% | 106%
Cc1oncc1C(=O)Nc1ccc(C(F)(F)F)cc1 [Leflunomide] | 20.6 µM | 13 µM | 55.8% | 57.6%
COC(=O)C1=C(C)NC(COC(N)=O)=C(C(=O)OC(C)C)C1c1cccc(Cl)c1Cl (stereo not given) [Lemildipine] | 23.1 µM | 25.9 µM | 76.7% | 76.8%
COC(=O)C1=C(C)NC(C)=C(C(=O)OC(C)(C)CN(C)CCC(c2ccccc2)c2ccccc2)C1c1cccc([N+](=O)[O-])c1 (stereo not given) [Lercanidipine hydrochloride] | 20.6 µM | 16.4 µM | 89.3% | 102%
C=CCN1CC[C@]23CCCC[C@H]2[C@H]1Cc1ccc(O)cc13 [Levallorphan] | > 45.8 µM | 25.9 µM | 42.1% | –
CCCC[C@H](C)C[C@H](O)/C=C/[C@H]1[C@H](O)CC(=O)[C@@H]1CCCC/C=C/C(=O)O [Limaprost] | 20.6 µM | 16.4 µM | 77.6% | 81.4%
COc1ccc(CN2CCN(C(c3ccc(F)cc3)c3ccc(F)cc3)CC2)c(OC)c1OC [Lomerizine dihydrochloride] | 20.6 µM | 23.1 µM | 104% | 130%
O=C(NC1CCN(CCCCC2(C(=O)NCC(F)(F)F)c3ccccc3-c3ccccc32)CC1)c1ccccc1-c1ccc(C(F)(F)F)cc1 [Lomitapide] | 16.4 µM | 20.6 µM | 115% | 117%
CN(C)C(=O)C(CCN1CCC(O)(c2ccc(Cl)cc2)CC1)(c1ccccc1)c1ccccc1 [Loperamide hydrochloride] | 14.6 µM | 18.3 µM | 54.9% | 59.4%
Cc1cccc(C)c1OCC(=O)N[C@@H](Cc1ccccc1)[C@@H](O)C[C@H](Cc1ccccc1)NC(=O)[C@H](C(C)C)N1CCCNC1=O [Lopinavir] | 18.3 µM | 29.1 µM | 73.7% | 50.2%
CC[C@H](C)C(=O)O[C@H]1C[C@@H](C)C=C2C=C[C@H](C)[C@H](CC[C@@H]3C[C@@H](O)CC(=O)O3)[C@H]21 [Lovastatin] | > 45.8 µM | 20.6 µM | 46.5% | –
O=C(NC(=O)c1c(F)cccc1F)Nc1cc(Cl)c(OC(F)(F)C(F)C(F)(F)F)cc1Cl (stereo not given) [Lufenuron] | > 45.8 µM | 18.3 µM | 41.2% | –
